Consider 8 compounds from patent US20230295234A1, “ANTIMICROBIAL PEPTIDOMIMETICS” (SPEXIS AG, priority 2020, published 2023).

Series [1] has as its system Escherichia coli ATCC 25922. The note with it: ATCC 25922. In outline: (§1)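 First, bacterial colonies are suspended in saline and adjusted to 0.5 McFarland. Next, the suspension is diluted into cation-adjusted Mueller-Hinton II broth (approx. 5×10^5 CFU/mL). Finally, it is added to two-fold serially diluted peptide, with polysorbate 80 at 0.002% final.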
In series [2] the test system is Escherichia coli MCR-1 Af 45. As to conditions: Mueller-Hinton broth II, 18-20 hours at 35° C. The gist of the method: as §1
The subject of series [3] is Klebsiella pneumoniae SSI3010. As to conditions: SSI3010. The gist of the method:
as §1

Series [4] deals with human red blood cells (hRBC). Put plainly: Hemolysis of human red blood cells. It is filed as cell-based. As to conditions: red cells of human, 1 h. The gist of the method: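 Percent hemolysis is OD540 of peptide-treated supernatant relative to water-lysed cells. Each peptide was tested at 200 μg/mL against 20% (v/v) washed human erythrocytes. Incubation was 1 h at 37 °C, 300 rpm.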

Bridge positions count the residues as written; N and C are the ends. Square brackets hold non-standard residues; d marks the D form. Triazole bridges read from a SMILES are 1,4-linked. Peptide text beside a SMILES is read from it. * marks the point of attachment. Val(Nα-amidino) = CC(C)[C@H](NC(=N)N)C(=O)*; Pro(4R-NH2) = N[C@H]1CN[C@H](C(=O)O)C1; Aha = [N-]=[N+]=NCC[C@H](N)C(=O)O; Hyp = O=C(O)[C@@H]1C[C@@H](O)CN1; aThr = C[C@H](O)[C@H](N)C(=O)O; Pen = CC(C)(S)[C@H](N)C(=O)O; dDab = NCC[C@@H](N)C(=O)O; Pra = C#CC[C@H](N)C(=O)O; Dab = NCC[C@H](N)C(=O)O

Take `CC[C@H](C)[C@H](NC(=O)[C@@H]1C[C@@H](O)CN1C(=O)[C@@H](NC(=N)N)C(C)C)C(=O)N[C@H](C(=O)N[C@@H](Cc1ccc(O)cc1)C(=O)N[C@@H]1C(=O)N[C@@H](CC(N)=O)C(=O)N[C@@H](CCCNC(=N)N)C(=O)N[C@@H](CCN)C(=O)N[C@@H](CO)C(=O)N[C@H](CCN)C(=O)N[C@@H](CCCCN)C(=O)N[C@H](C(=O)N[C@@H](CCN)C(=O)N[C@@H](CCCN)C(=O)N[C@@H](Cc2ccc(O)cc2)C(=O)O)CSSC1(C)C)[C@@H](C)O` [Example 198] (HELM PEPTIDE1{[CC(C)[C@H](NC(=N)N)C(=O)[*:2]].[Hyp].I.T.Y.[Pen].N.R.[Dab].S.[NCC[C@@H](N[*:1])C(=O)[*:2]].K.C.[Dab].[Orn].Y}$PEPTIDE1,PEPTIDE1,6:R3-13:R3$$$V2.0): the “Escherichia coli ATCC 25922 MIC” value in series [1] turned out to be 0.125 µg/mL. Moreover, the “Escherichia coli MCR-1 Af 45 MIC” value in series [2] was 0.0625 µg/mL. In addition, in series [3], the “Klebsiella pneumoniae SSI3010 MIC” value stood at 0.125 µg/mL. In addition, the “Hemolysis at 0.2 g/L” value in series [4] was 0%.
In the case of `CC[C@H](C)[C@H](NC(=O)[C@@H]1C[C@@H](N)CN1C(=O)[C@@H](NC(=N)N)C(C)C)C(=O)N[C@H](C(=O)N[C@@H](Cc1ccc(O)cc1)C(=O)N[C@@H]1C(=O)N[C@@H](CC(N)=O)C(=O)N[C@@H](CCCNC(=N)N)C(=O)N[C@@H](CCN)C(=O)N[C@@H]([C@@H](C)O)C(=O)N[C@H](CCN)C(=O)N[C@@H](CCCCN)C(=O)N[C@H](C(=O)N[C@@H](Cc2ccc(O)cc2)C(=O)N[C@@H](CCCNC(=N)N)C(=O)N[C@@H](Cc2ccc(O)cc2)C(=O)O)CSSC1(C)C)[C@@H](C)O` [Example 199] ({Val(Nα-amidino)}-[Pro(4R-NH2)]ITY[Pen]NR[Dab]T[dDab]KCYRY-OH; disulfide 5-12), in series [1], the “Escherichia coli ATCC 25922 MIC” value came to 0.25 µg/mL. Besides, in series [2], the “Escherichia coli MCR-1 Af 45 MIC” value came to 0.125 µg/mL. Besides, the “Klebsiella pneumoniae SSI3010 MIC” value in series [3] was determined as 0.25 µg/mL. For the same compound, in series [4], the “Hemolysis at 0.2 g/L” value was found to be 0%.
In the case of `CC[C@H](C)[C@H](NC(=O)[C@@H](NC(=O)[C@@H]1C[C@@H](N)CN1C(=O)[C@@H](NC(=N)N)C(C)C)[C@@H](C)CC)C(=O)N[C@@H](Cc1ccc(O)cc1)C(=O)N[C@@H]1C(=O)N[C@@H](CC(N)=O)C(=O)N[C@@H](CCCNC(=N)N)C(=O)N[C@@H](CCN)C(=O)N[C@@H]([C@@H](C)O)C(=O)N[C@H](CCN)C(=O)N[C@@H](CCCCN)C(=O)N[C@H](C(=O)N[C@@H](Cc2ccc(O)cc2)C(=O)N[C@@H](CCCNC(=N)N)C(=O)N[C@@H](Cc2ccc(O)cc2)C(=O)O)CSSC1(C)C` [Example 200] ({Val(Nα-amidino)}-[Pro(4R-NH2)]IIY[Pen]NR[Dab]T[dDab]KCYRY-OH; disulfide 5-12), the “Escherichia coli ATCC 25922 MIC” value in series [1] turned out to be 0.5 µg/mL. The “Escherichia coli MCR-1 Af 45 MIC” value in series [2] came to 0.125 µg/mL. The “Klebsiella pneumoniae SSI3010 MIC” value in series [3] stood at 0.125 µg/mL. Moreover, in series [4], the “Hemolysis at 0.2 g/L” value is recorded as 0%.
Consider `CC[C@H](C)[C@H](NC(=O)[C@@H]1C[C@@H](O)CN1C(=O)[C@@H](NC(=N)N)C(C)C)C(=O)N[C@H](C(=O)N[C@@H](Cc1ccc(O)cc1)C(=O)N[C@@H]1C(=O)N[C@@H](CC(N)=O)C(=O)N[C@@H](CCCNC(=N)N)C(=O)N[C@@H](CCN)C(=O)N[C@@H]([C@@H](C)O)C(=O)N[C@H](CCN)C(=O)N[C@@H](CCCCN)C(=O)N[C@H](C(=O)N[C@@H](Cc2ccc(O)cc2)C(=O)N[C@@H](CCCNC(=N)N)C(=O)N[C@@H](Cc2ccc(O)cc2)C(=O)O)CSSC1(C)C)[C@H](C)O` [Example 201] ({Val(Nα-amidino)}-[Hyp]I[aThr]Y[Pen]NR[Dab]T[dDab]KCYRY-OH; disulfide 5-12), for which the “Escherichia coli ATCC 25922 MIC” value in series [1] worked out at 0.5 µg/mL. For the same compound, the “Escherichia coli MCR-1 Af 45 MIC” value in series [2] was determined as 0.25 µg/mL. For the same compound, the “Klebsiella pneumoniae SSI3010 MIC” value in series [3] turned out to be 0.5 µg/mL. Moreover, the “Hemolysis at 0.2 g/L” value in series [4] was 0%.
Take `CC[C@H](C)[C@H](NC(=O)[C@@H](NC(=O)[C@@H]1CCCN1C(=O)[C@@H](N=C(N(C)C)N(C)C)C(C)C)[C@@H](C)CC)C(=O)N[C@@H](Cc1ccc(O)cc1)C(=O)N[C@H]1CSSC[C@@H](C(=O)N[C@@H](CCN)C(=O)N[C@@H](CCCNC(=N)N)C(=O)N[C@@H](Cc2ccc(O)cc2)C(=O)O)NC(=O)[C@H](CCCCN)NC(=O)[C@@H](CCN)NC(=O)[C@H]([C@@H](C)O)NC(=O)[C@H](CCN)NC(=O)[C@H](CCCNC(=N)N)NC(=O)[C@H](CC(N)=O)NC1=O` [Example 202] (HELM PEPTIDE1{[CC(C)[C@H](N=C(N(C)C)N(C)C)C(=O)[*:2]].P.I.I.Y.C.N.R.[Dab].T.[NCC[C@@H](N[*:1])C(=O)[*:2]].K.C.[Dab].R.Y}$PEPTIDE1,PEPTIDE1,6:R3-13:R3$$$V2.0): the “Escherichia coli ATCC 25922 MIC” value in series [1] is 0.0625 µg/mL. Moreover, the “Escherichia coli MCR-1 Af 45 MIC” value in series [2] was 0.0625 µg/mL. The “Klebsiella pneumoniae SSI3010 MIC” value in series [3] came to 0.25 µg/mL. For the same compound, in series [4], the “Hemolysis at 0.2 g/L” value is reported as 0%.
Turning to `CC[C@H](C)[C@H](NC(=O)[C@@H]1C[C@@H](O)CN1C(=O)[C@@H](N=C(N(C)C)N(C)C)C(C)C)C(=O)N[C@H](C(=O)N[C@@H](Cc1ccc(O)cc1)C(=O)N[C@@H]1C(=O)N[C@@H](CC(N)=O)C(=O)N[C@@H](CCCNC(=N)N)C(=O)N[C@@H](CCN)C(=O)N[C@@H]([C@@H](C)O)C(=O)N[C@H](CCN)C(=O)N[C@@H](CCCCN)C(=O)N[C@H](C(=O)N[C@@H](CCN)C(=O)N[C@@H](CCCNC(=N)N)C(=O)N[C@@H](Cc2ccc(O)cc2)C(=O)O)CSSC1(C)C)[C@@H](C)O` [Example 203] (HELM PEPTIDE1{[CC(C)[C@H](N=C(N(C)C)N(C)C)C(=O)[*:2]].[Hyp].I.T.Y.[Pen].N.R.[Dab].T.[NCC[C@@H](N[*:1])C(=O)[*:2]].K.C.[Dab].R.Y}$PEPTIDE1,PEPTIDE1,6:R3-13:R3$$$V2.0), the “Escherichia coli ATCC 25922 MIC” value in series [1] is 0.25 µg/mL. For the same compound, the “Escherichia coli MCR-1 Af 45 MIC” value in series [2] stood at 0.125 µg/mL. Moreover, in series [3], the “Klebsiella pneumoniae SSI3010 MIC” value is 0.5 µg/mL. Also, the “Hemolysis at 0.2 g/L” value in series [4] worked out at 0%.
As for `CC[C@H](C)[C@H](NC(=O)[C@@H](NC(=O)[C@@H]1C[C@@H](O)CN1C(=O)[C@@H](N)C(C)C)[C@@H](C)CC)C(=O)N[C@@H](Cc1ccc(O)cc1)C(=O)N[C@H]1Cc2cn(nn2)CC[C@@H](C(=O)N[C@@H](CCN)C(=O)N[C@@H](CCCNC(=N)N)C(=O)N[C@@H](Cc2ccc(O)cc2)C(=O)O)NC(=O)[C@H](CCCCN)NC(=O)[C@@H](CCN)NC(=O)[C@H]([C@@H](C)O)NC(=O)[C@H](CCN)NC(=O)[C@H](CCCNC(=N)N)NC(=O)[C@H](CC(N)=O)NC1=O` [Example 204] (H-V[Hyp]IIY[Pra]NR[Dab]T[dDab]K[Aha][Dab]RY-OH; triazole 6-13), the “Escherichia coli ATCC 25922 MIC” value in series [1] amounted to 0.25 µg/mL. Moreover, the “Escherichia coli MCR-1 Af 45 MIC” value in series [2] amounted to 0.25 µg/mL. In addition, in series [3], the “Klebsiella pneumoniae SSI3010 MIC” value worked out at 2 µg/mL. In series [4], the “Hemolysis at 0.2 g/L” value is 0%.
As for `CC[C@H](C)[C@H](NC(=O)[C@@H](NC(=O)[C@@H]1C[C@@H](O)CN1C(=O)[C@@H](N)C(C)C)[C@@H](C)CC)C(=O)N[C@@H](Cc1ccc(O)cc1)C(=O)N[C@H]1CC(=O)NCC[C@@H](C(=O)N[C@@H](CCN)C(=O)N[C@@H](CCCNC(=N)N)C(=O)N[C@@H](Cc2ccc(O)cc2)C(=O)O)NC(=O)[C@H](CCCCN)NC(=O)[C@@H](CCN)NC(=O)[C@H]([C@@H](C)O)NC(=O)[C@H](CCN)NC(=O)[C@H](CCCNC(=N)N)NC(=O)[C@H](CC(N)=O)NC1=O` [Example 205] (HELM PEPTIDE1{V.[Hyp].I.I.Y.D.N.R.[Dab].T.[NCC[C@@H](N[*:1])C(=O)[*:2]].K.[Dab].[Dab].R.Y}$PEPTIDE1,PEPTIDE1,6:R3-13:R3$$$V2.0), in series [1], the “Escherichia coli ATCC 25922 MIC” value came to 0.125 µg/mL. The “Escherichia coli MCR-1 Af 45 MIC” value in series [2] was 0.125 µg/mL. Besides, in series [3], the “Klebsiella pneumoniae SSI3010 MIC” value turned out to be 0.25 µg/mL. In addition, the “Hemolysis at 0.2 g/L” value in series [4] turned out to be 0%.
